According to patent US5153180A, “Fluorinated nucleosides and process for treating retrovirus infections therewith” (priority 1990, dated 1992):
Read-outs that look alike come from different tables or passages of the source.

Experiments:
[1] = target: T1, thymidine-phosphorylase from human spleen (Homo sapiens, UniProt P19971); assay: Phosphorolytic cleavage by thymidine-phosphorylase; type: in vitro ADME; conditions: for metabolised at 3 h, 1000 µM: 1 mM, within 3 hours, read-out: extent of cleavage by thymidine-phosphorylase
T1 construct: thymidine-phosphorylase from human spleen; from tissue; host or cells: human spleen
T1 sequence (P19971 11-482): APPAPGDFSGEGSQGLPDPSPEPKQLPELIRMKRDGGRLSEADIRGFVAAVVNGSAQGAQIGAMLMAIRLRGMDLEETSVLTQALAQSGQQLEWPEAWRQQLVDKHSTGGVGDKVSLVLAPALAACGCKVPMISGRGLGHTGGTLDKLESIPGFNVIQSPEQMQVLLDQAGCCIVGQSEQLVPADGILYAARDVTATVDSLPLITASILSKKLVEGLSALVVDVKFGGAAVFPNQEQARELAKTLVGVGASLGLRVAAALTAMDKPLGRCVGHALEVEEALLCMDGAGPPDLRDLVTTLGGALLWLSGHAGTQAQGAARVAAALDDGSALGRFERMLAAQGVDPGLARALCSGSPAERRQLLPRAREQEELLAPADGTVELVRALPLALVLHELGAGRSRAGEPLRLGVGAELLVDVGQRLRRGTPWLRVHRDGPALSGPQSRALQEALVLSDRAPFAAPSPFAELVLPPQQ
Source text: Therefore FTdR, FddBrUrd and FddFUrd were investigated for their ability to be cleaved by thymidine-phosphorylase from human spleen.

[2] = in vitro; conditions: human, mt-4 cells
Procedure: (§1) Under in vitro conditions immortalized T-lymphocytes can be killed within few days by the cytopathic effect of HIV. […] For this purpose about 20,000 MT-4 cells (Harada et al. Science 229, 563 (1985)) Were infected with HIV (titer: 0.04 m.o.i.) and incubated in the presence or absence of varying concentrations of compounds according to formula I, with 10% fetal calf serum (FCS) in 200 μl RPMI medium. After 6 days of incubation the viable cells were counted that were excluded from trypan blue staining.

[3] = system: HIV; assay: Inhibition of the cytopathic effect of HIV on MT-4 cells; type: cell-based; conditions: MT-4 cells, 6 days of incubation; for EC50: Human immunodeficiency virus 1, MT4, 144 h, read-out: 50% antiviral dose (ED50)
Procedure: as §1

[4] = target: T2, cellular DNA polymerase α (Bos taurus, UniProt A0AAA9TD94); assay: Effect on cellular DNA polymerase α; type: biochemical; conditions: enzyme purified from calf thymus; read-out: ID50 cellular polymerase α
T2 construct: purified from calf thymus; from tissue; host or cells: calf thymus
T2 sequence (A0AAA9TD94 1-1441): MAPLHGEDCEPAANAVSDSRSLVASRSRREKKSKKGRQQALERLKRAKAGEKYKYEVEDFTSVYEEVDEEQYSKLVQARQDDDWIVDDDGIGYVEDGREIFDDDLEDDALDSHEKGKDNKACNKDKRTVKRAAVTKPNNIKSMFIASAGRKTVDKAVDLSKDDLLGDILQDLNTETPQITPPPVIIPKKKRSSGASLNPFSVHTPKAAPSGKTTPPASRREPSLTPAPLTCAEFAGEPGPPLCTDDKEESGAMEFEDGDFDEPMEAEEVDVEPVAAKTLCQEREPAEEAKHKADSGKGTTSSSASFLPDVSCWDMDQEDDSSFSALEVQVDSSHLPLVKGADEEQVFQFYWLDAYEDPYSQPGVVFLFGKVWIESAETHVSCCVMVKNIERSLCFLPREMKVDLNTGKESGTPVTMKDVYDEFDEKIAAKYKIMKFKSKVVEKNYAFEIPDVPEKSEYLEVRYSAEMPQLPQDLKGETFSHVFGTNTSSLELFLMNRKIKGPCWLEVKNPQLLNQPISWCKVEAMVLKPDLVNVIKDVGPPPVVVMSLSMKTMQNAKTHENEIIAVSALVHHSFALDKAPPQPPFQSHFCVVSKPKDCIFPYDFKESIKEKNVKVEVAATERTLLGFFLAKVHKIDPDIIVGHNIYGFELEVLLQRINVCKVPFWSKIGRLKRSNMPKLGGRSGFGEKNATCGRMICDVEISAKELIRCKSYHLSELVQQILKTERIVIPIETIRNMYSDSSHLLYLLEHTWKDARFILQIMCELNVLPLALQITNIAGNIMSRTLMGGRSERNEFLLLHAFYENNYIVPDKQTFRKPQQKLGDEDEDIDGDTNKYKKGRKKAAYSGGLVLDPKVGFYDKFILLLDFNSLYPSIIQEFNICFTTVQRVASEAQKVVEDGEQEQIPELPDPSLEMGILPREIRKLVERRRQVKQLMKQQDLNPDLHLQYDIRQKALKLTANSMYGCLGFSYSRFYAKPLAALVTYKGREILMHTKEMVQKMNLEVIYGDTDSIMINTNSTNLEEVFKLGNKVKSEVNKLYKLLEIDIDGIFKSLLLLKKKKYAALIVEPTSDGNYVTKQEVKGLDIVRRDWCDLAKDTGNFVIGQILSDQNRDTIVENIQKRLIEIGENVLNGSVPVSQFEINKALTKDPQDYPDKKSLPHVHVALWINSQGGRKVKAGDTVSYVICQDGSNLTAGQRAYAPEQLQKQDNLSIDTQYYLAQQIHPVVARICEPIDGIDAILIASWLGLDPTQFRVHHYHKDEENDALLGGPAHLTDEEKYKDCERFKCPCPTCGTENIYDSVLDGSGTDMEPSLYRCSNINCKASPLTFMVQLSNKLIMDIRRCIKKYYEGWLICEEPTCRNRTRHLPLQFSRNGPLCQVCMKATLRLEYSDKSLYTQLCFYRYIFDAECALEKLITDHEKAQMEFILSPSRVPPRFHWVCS
Source text: (§2) The strong inhibiting effect of 3'-fluoro-substituted deoxynucleotides against HIV-reverse transcriptase can be utilized therapeutically only if the cellular DNA polymerases, especially the DNA polymerase α which is required for the replication of the cellular DNA, remain substantially unaffected. […] The ID50 values for the DNA polymerase β responsible for cellular DNA repair vary between 1,8-15 μm. Both enzymes cellular DNA polymerase α and β were purified from calf thymus and tested according to the method of E. Matthes et al., Biomed. Biochim. Acta 44. K63 (1985).

[5] = target: T3, HIV-associated reverse transcriptase (HIV-RT) (Human immunodeficiency virus type 1 group M subtype B, UniProt P04585); assay: Inhibition of HIV-associated reverse transcriptase (polymerization of artificial templates); type: biochemical; set-up: efficacy against HIV-associated reverse transcriptase: dose or concentration left out as unconfirmed; conditions: for IC50: read-out: ID50 HIV-RT
T3 construct: HIV-associated reverse transcriptase (HIV-RT)
Source text: At first the triphosphates of some compounds according to formula I were investigated for their ability to inhibit the polymerization of artificial templates (such as polyAoligodT and polyColigodG) catalyzed by HIV-associated reverse transcriptase (HIV-RT) according to the method described by A. D. Hoffman et al., Virology 147, 326, 1985. […] FdTTP, FdUTP and FdGTP are among the strongest inhibitors found so far for HIV-RT. In comparison the ID50 for 3'-azidothymidinetriphosphate was estimated under our conditions to be about […].

[6] = target: T4, cellular DNA polymerase β (Bos taurus, UniProt Q27958); assay: Effect on cellular DNA polymerase β; type: biochemical; conditions: enzyme purified from calf thymus; read-out: ID50 cellular polymerase β
T4 construct: purified from calf thymus; from tissue; host or cells: calf thymus
Source text: as §2

[7] = concentration required for 50% inhibition

| SMILES | EC50 [3] [µM] | CC50 at 144 h [2] [µM] | further results |
| --- | --- | --- | --- |
| O=c1[nH]c(=O)n([C@H]2C[C@H](F)[C@@H](CO)O2)cc1F [FddFUrd, 2'-3'-dideoxy-3'-fluoro-5-fluorouridine] |  | > 200 | metabolised at 3 h, 1000 µM [1]: 3 to 8%; 50% antiviral dose (ED50) [3]: not detectable |
| Cc1cn([C@H]2C[C@H](O)[C@@H](CO)O2)c(=O)[nH]c1=O [thymidine, reference compound] |  |  | metabolised at 2 h [1]: 90% |
| CCc1cn([C@H]2C[C@H](F)[C@@H](COP(=O)(O)OP(=O)(O)OP(=O)(O)O)O2)c(=O)[nH]c1=O [Compound F5EtdUTP, 2'-3'-dideoxy-3'-fluoro-5-ethyluridine-5'-triphphosphate] |  |  | IC50 [4]: 10 µM; IC50 [5, 7]: 7.5 µM; IC50 [6]: 4 µM |
| Cc1cn([C@H]2C[C@H](N=[N+]=[N-])[C@@H](CO[P@](=O)(O)O[P@](=O)(O)OP(=O)(O)O)O2)c(=O)[nH]c1=O [3'-azidothymidinetriphosphate, reference compound] |  |  | IC50 ([5]; estimated under our conditions): ~50 µM |
| Nc1nc2c(ncn2[C@H]2C[C@H](F)[C@@H](CO)O2)c(=O)[nH]1 [FddGuo, 2'-3'-dideoxy-3'-fluoroguanosine] | 5 | 250 |  |
| Cc1cn([C@H]2C[C@H](Cl)[C@@H](COP(=O)(O)OP(=O)(O)OP(=O)(O)O)O2)c(=O)[nH]c1=O [3'-chloro-2',3'-dideoxythymidine triphosphate, reference compound] |  |  | efficacy against HIV-associated reverse transcriptase [5]: completely ineffective |
| N#Cc1cn([C@H]2C[C@H](F)[C@@H](CO)O2)c(=O)[nH]c1=O [FddCNUrd, 2'-3'-dideoxy-3'-fluoro-5-cyanouridine] |  | > 500 | 50% antiviral dose (ED50) [3]: not detectable |
| O=c1[nH]c(=O)n([C@H]2C[C@H](F)[C@@H](COP(=O)(O)OP(=O)(O)OP(=O)(O)O)O2)cc1F [Compound F5FdUTP, 2'-3'-dideoxy-3'-fluoro-5-fluorouridine-5'-triphosphate] |  |  | IC50 [4]: > 200 µM; IC50 [5, 7]: 0.45 µM; IC50 [6]: 15 µM |
| O=c1ccn([C@H]2C[C@H](F)[C@@H](COP(=O)(O)OP(=O)(O)OP(=O)(O)O)O2)c(=O)[nH]1 [FdUTP, 2'-3'-dideoxy-3'-fluorouridine-5'-triphosphate] |  |  | IC50 [4]: > 200 µM; IC50 [5, 7]: 0.07 µM; IC50 [6]: 3 µM |
| O=c1[nH]c(=O)n([C@H]2C[C@H](F)[C@@H](CO)O2)cc1CO [FddHMUrd, 2'-3'-dideoxy-3'-fluoro-5-hydroxymethyluridine] | > 500 | > 500 |  |
| Nc1ccn([C@@H]2O[C@H](CO)[C@@H](F)[C@@H]2O)c(=O)n1 [FaraC, 3'-deoxy-3'-fluoroarabinosylcytosine] | > 100 | > 100 |  |
| O=c1[nH]c(=O)n([C@H]2C[C@H](F)[C@@H](CO)O2)cc1Br [FddBrUrd, 2'-3'-dideoxy-3'-fluoro-5-bromouridine] | 5 | 190 | metabolised at 3 h, 1000 µM [1]: 3 to 8% |
| Nc1nc2c(ncn2[C@H]2C[C@H](F)[C@@H](COP(=O)(O)OP(=O)(O)OP(=O)(O)O)O2)c(=O)[nH]1 [FdGTP, 2'-3'-dideoxy-3'-fluoroguanosine-5'-triphosphate] |  |  | IC50 [4]: > 200 µM; IC50 [5, 7]: 0.05 µM; IC50 [6]: 1.8 µM |

The next lines start with results.

| EC50 [3] [µM] | SMILES | CC50 at 144 h [2] [µM] | further results |
| --- | --- | --- | --- |
| > 100 | O=c1[nH]c(=O)n([C@@H]2O[C@H](CO)[C@@H](F)[C@@H]2O)cc1Br [FaraBrU, 3'-deoxy-3'-fluoroarabinosyl-5-bromouracil] | > 100 |  |
| > 100 | Nc1ncnc2c1ncn2[C@H]1C[C@H](F)[C@@H](CO)O1 [FddAdo, 2'-3'-dideoxy-3'-fluoroadenosine] | 75 |  |
| > 500 | CCc1cn([C@H]2C[C@H](F)[C@@H](CO)O2)c(=O)[nH]c1=O [FddEtUrd, 2'-3'-dideoxy-3'-fluoro-5-ethyluridine] | > 500 |  |
| 25 | Nc1ccn([C@H]2C[C@H](F)[C@@H](CO)O2)c(=O)n1 [FddCyt, 2'-3'-dideoxy-3'-fluorocytidine] | 62 |  |
| 125 | Cc1cn([C@H]2C[C@H](F)[C@@H](CO)O2)c(=O)nc1N [FddMCyt, 2'-3'-dideoxy-3'-fluoromethylcytidine] | 125 |  |
| 6 | Nc1nc(N)c2ncn([C@H]3C[C@H](F)[C@@H](CO)O3)c2n1 [FddDAPR, 2'-3'-dideoxy-3'-fluoro-2,6-diaminopurineriboside] | 480 |  |
| > 500 | O=c1ccn([C@@H]2O[C@H](CO)[C@@H](F)[C@@H]2O)c(=O)[nH]1 [FaraU, 3'-deoxy-3'-fluoroarabinosyluracil] | > 500 |  |
